Test system: 439559-082-T-J2-PDC spheroids viability
Experiment: Anticancer human tumor 439559-082-T-J2-PDC patient-derived colon adenocarcinoma cell line growth inhibition [GQUAD]
Details: for IC50: curve of first compound; for viability, T/C: stronger effect = lower value
In short: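 Multi-cell-type spheroids of tumor cells with HUVEC and mesenchymal stem cells, treated with drug combinations. Concentrations descend in half-log steps from near clinical Cmax, or from 10 microM where Cmax is unknown; viability read-out.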

[1] = second compound 0.0316 µM, first compound 0.0316 µM
[2] = second compound 0.0316 µM, first compound 0.1 µM
[3] = second compound 0.0316 µM, first compound 0.316 µM
[4] = second compound 0.0316 µM, first compound 1 µM
[5] = second compound 0.0316 µM, first compound 3.16 µM
[6] = second compound 0.0316 µM, first compound 10 µM
[7] = second compound 0.1 µM, first compound 0.0316 µM
[8] = second compound 0.1 µM, first compound 0.1 µM
[9] = second compound 0.1 µM, first compound 0.316 µM
[10] = second compound 0.1 µM, first compound 1 µM
[11] = second compound 0.1 µM, first compound 3.16 µM
[12] = second compound 0.1 µM, first compound 10 µM
[13] = second compound 0.316 µM, first compound 0.0316 µM
[14] = second compound 0.316 µM, first compound 0.1 µM
[15] = second compound 0.316 µM, first compound 0.316 µM
[16] = second compound 0.316 µM, first compound 1 µM
[17] = second compound 0.316 µM, first compound 3.16 µM
[18] = second compound 0.316 µM, first compound 10 µM
[19] = second compound 1 µM, first compound 0.0316 µM
[20] = second compound 1 µM, first compound 0.1 µM
[21] = second compound 1 µM, first compound 0.316 µM
[22] = second compound 1 µM, first compound 1 µM
[23] = second compound 1 µM, first compound 3.16 µM
[24] = second compound 1 µM, first compound 10 µM
[25] = second compound 3.16 µM, first compound 0.0316 µM
[26] = second compound 3.16 µM, first compound 0.1 µM
[27] = second compound 3.16 µM, first compound 0.316 µM
[28] = second compound 3.16 µM, first compound 1 µM
[29] = second compound 3.16 µM, first compound 3.16 µM
[30] = second compound 3.16 µM, first compound 10 µM
[31] = second compound 10 µM, first compound 0.0316 µM
[32] = second compound 10 µM, first compound 0.1 µM
[33] = second compound 10 µM, first compound 0.316 µM
[34] = second compound 10 µM, first compound 1 µM
[35] = second compound 10 µM, first compound 3.16 µM
[36] = second compound 10 µM, first compound 10 µM
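Note: spheroids exposed to the agents for 7 days before readout.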
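Throughout, for viability, T/C: percent of luminescence signal in DMSO vehicle wells taken as 100% viability.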

Q: For Nc1ccn(C2OC(CO)C(O)C2(F)F)c(=O)n1 (stereo unspecified) + CN(C)c1ccc(Nc2c3ccc(NC(=O)CCN4CCCC4)cc3nc3cc(NC(=O)CCN4CCCC4)ccc23)cc1, which IC50 (second compound 0.0316 µM) is on record?
A: 0.261 µM

Q: What about the IC50 (second compound 0.1 µM) of the same compound?
A: 0.263 µM

Q: And the IC50 (second compound 0.316 µM)?
A: 0.232 µM

Q: And the IC50 (second compound 1 µM)?
A: 0.237 µM

Q: And the IC50 (second compound 3.16 µM)?
A: 0.209 µM

Q: What about the IC50 (second compound 10 µM) of the same compound?
A: 0.17 µM

Q: And the viability, T/C [1]?
A: 78.2%

Q: And the viability, T/C [2]?
A: 65.2%

Q: And the viability, T/C [3]?
A: 46.7%

Q: What about the viability, T/C [4] of the same compound?
A: 32.3%

Q: And the viability, T/C [5]?
A: 25.2%

Q: And the viability, T/C [6]?
A: 20.5%

Q: And the viability, T/C [7]?
A: 85.3%

Q: What about the viability, T/C [8] of the same compound?
A: 70.4%

Q: And the viability, T/C [9]?
A: 42.6%

Q: And the viability, T/C [10]?
A: 36.3%

Q: And the viability, T/C [11]?
A: 26.2%

Q: What about the viability, T/C [12] of the same compound?
A: 23%

Q: And the viability, T/C [13]?
A: 84.8%

Q: What about the viability, T/C [14] of the same compound?
A: 68.6%

Q: And the viability, T/C [15]?
A: 42.5%

Q: What about the viability, T/C [16] of the same compound?
A: 29.2%

Q: What about the viability, T/C [17] of the same compound?
A: 26.8%

Q: What about the viability, T/C [18] of the same compound?
A: 20.8%

Q: What about the viability, T/C [19] of the same compound?
A: 87%

Q: And the viability, T/C [20]?
A: 65.7%

Q: What about the viability, T/C [21] of the same compound?
A: 45.8%

Q: And the viability, T/C [22]?
A: 28.2%

Q: What about the viability, T/C [23] of the same compound?
A: 23.1%

Q: And the viability, T/C [24]?
A: 19.5%

Q: And the viability, T/C [25]?
A: 86.5%

Q: What about the viability, T/C [26] of the same compound?
A: 67.9%

Q: What about the viability, T/C [27] of the same compound?
A: 38.7%

Q: What about the viability, T/C [28] of the same compound?
A: 28.9%

Q: What about the viability, T/C [29] of the same compound?
A: 24.4%

Q: And the viability, T/C [30]?
A: 19.7%

Q: And the viability, T/C [31]?
A: 76.9%

Q: And the viability, T/C [32]?
A: 59.9%

Q: And the viability, T/C [33]?
A: 39.3%

Q: And the viability, T/C [34]?
A: 18.5%

Q: And the viability, T/C [35]?
A: 23.2%

Q: And the viability, T/C [36]?
A: 18.7%

Q: With CC(=O)O[C@H]1C(=O)[C@@]2(C)[C@H]([C@H](OC(=O)c3ccccc3)[C@]3(O)C[C@H](OC(=O)[C@H](O)[C@@H](NC(=O)c4ccccc4)c4ccccc4)C(C)=C1C3(C)C)[C@]1(OC(C)=O)CO[C@@H]1C[C@@H]2O + CN(C)c1ccc(Nc2c3ccc(NC(=O)CCN4CCCC4)cc3nc3cc(NC(=O)CCN4CCCC4)ccc23)cc1 as the compound, how does the IC50 (second compound 0.0316 µM) read?
A: 2.03 µM

Q: And the IC50 (second compound 0.1 µM)?
A: 1.83 µM

Q: And the IC50 (second compound 0.316 µM)?
A: 2.04 µM

Q: And the IC50 (second compound 1 µM)?
A: 1.79 µM

Q: What about the IC50 (second compound 3.16 µM) of the same compound?
A: 2.18 µM

Q: And the IC50 (second compound 10 µM)?
A: 1.36 µM

Q: What about the viability, T/C [1] of the same compound?
A: 84.8%

Q: And the viability, T/C [2]?
A: 77.7%

Q: What about the viability, T/C [3] of the same compound?
A: 74.5%

Q: What about the viability, T/C [4] of the same compound?
A: 62.8%

Q: And the viability, T/C [5]?
A: 41.7%

Q: And the viability, T/C [6]?
A: 29.9%

Q: And the viability, T/C [7]?
A: 85.1%

Q: What about the viability, T/C [8] of the same compound?
A: 83.7%

Q: What about the viability, T/C [9] of the same compound?
A: 74.2%

Q: What about the viability, T/C [10] of the same compound?
A: 60.9%

Q: And the viability, T/C [11]?
A: 40.3%

Q: What about the viability, T/C [12] of the same compound?
A: 31.6%

Q: And the viability, T/C [13]?
A: 84%

Q: And the viability, T/C [14]?
A: 82.3%

Q: And the viability, T/C [15]?
A: 69.7%

Q: And the viability, T/C [16]?
A: 60.4%

Q: What about the viability, T/C [17] of the same compound?
A: 44%

Q: And the viability, T/C [18]?
A: 30.7%

Q: And the viability, T/C [19]?
A: 76.2%

Q: What about the viability, T/C [20] of the same compound?
A: 82.9%

Q: What about the viability, T/C [21] of the same compound?
A: 70%

Q: And the viability, T/C [22]?
A: 64%

Q: What about the viability, T/C [23] of the same compound?
A: 36.9%

Q: And the viability, T/C [24]?
A: 28.9%

Q: What about the viability, T/C [25] of the same compound?
A: 82.1%

Q: What about the viability, T/C [26] of the same compound?
A: 84.6%

Q: What about the viability, T/C [27] of the same compound?
A: 78.9%

Q: What about the viability, T/C [28] of the same compound?
A: 65.8%

Q: And the viability, T/C [29]?
A: 42.5%

Q: What about the viability, T/C [30] of the same compound?
A: 26.7%

Q: And the viability, T/C [31]?
A: 73.5%

Q: What about the viability, T/C [32] of the same compound?
A: 73.9%

Q: What about the viability, T/C [33] of the same compound?
A: 86.2%

Q: What about the viability, T/C [34] of the same compound?
A: 56.6%

Q: And the viability, T/C [35]?
A: 36.7%

Q: What about the viability, T/C [36] of the same compound?
A: 27%

Q: Which IC50 (second compound 0.0316 µM) does the source give for COc1ncnc(C2CC2)c1-c1ncc2cnn(Cc3ccc(-c4nc(C(F)(F)F)cn4C(C)C)cc3)c2n1 + Cc1[nH]c2ccc(F)cc2c1-c1nc2c3cccnc3c3ncccc3c2[nH]1 here?
A: > 10 µM

Q: What about the IC50 (second compound 0.1 µM) of the same compound?
A: > 10 µM

Q: And the IC50 (second compound 0.316 µM)?
A: > 10 µM

Q: And the IC50 (second compound 1 µM)?
A: > 10 µM

Q: And the IC50 (second compound 3.16 µM)?
A: > 10 µM

Q: And the IC50 (second compound 10 µM)?
A: > 10 µM

Q: And the viability, T/C [1]?
A: 102%

Q: And the viability, T/C [2]?
A: 86.8%

Q: What about the viability, T/C [3] of the same compound?
A: 97.2%

Q: What about the viability, T/C [4] of the same compound?
A: 90.3%

Q: What about the viability, T/C [5] of the same compound?
A: 81.5%

Q: And the viability, T/C [6]?
A: 58%

Q: What about the viability, T/C [7] of the same compound?
A: 112%

Q: And the viability, T/C [8]?
A: 94.8%

Q: And the viability, T/C [9]?
A: 97.6%

Q: And the viability, T/C [10]?
A: 93.8%

Q: What about the viability, T/C [11] of the same compound?
A: 84.6%

Q: And the viability, T/C [12]?
A: 63.6%

Q: And the viability, T/C [13]?
A: 103%

Q: What about the viability, T/C [14] of the same compound?
A: 104%

Q: What about the viability, T/C [15] of the same compound?
A: 103%

Q: And the viability, T/C [16]?
A: 90.6%

Q: What about the viability, T/C [17] of the same compound?
A: 83.7%

Q: And the viability, T/C [18]?
A: 72.5%

Q: What about the viability, T/C [19] of the same compound?
A: 99.8%

Q: What about the viability, T/C [20] of the same compound?
A: 92%

Q: What about the viability, T/C [21] of the same compound?
A: 91.9%

Q: And the viability, T/C [22]?
A: 92.5%

Q: And the viability, T/C [23]?
A: 77.8%

Q: And the viability, T/C [24]?
A: 60.4%

Q: And the viability, T/C [25]?
A: 97.3%

Q: And the viability, T/C [26]?
A: 95.3%

Q: And the viability, T/C [27]?
A: 93.2%

Q: What about the viability, T/C [28] of the same compound?
A: 78.2%

Q: And the viability, T/C [29]?
A: 82.5%

Q: And the viability, T/C [30]?
A: 50.6%

Q: And the viability, T/C [31]?
A: 80.8%

Q: What about the viability, T/C [32] of the same compound?
A: 62.9%

Q: And the viability, T/C [33]?
A: 92.6%

Q: And the viability, T/C [34]?
A: 81.7%

Q: What about the viability, T/C [35] of the same compound?
A: 84.8%

Q: What about the viability, T/C [36] of the same compound?
A: 60.7%

— PubChem BioAssay AID2060510 (Molecular Pharmacology Branch, DTP, NCI, 2025)
